Results published in article PMC3189943, “Catalytic Properties of the Isolated Diaphorase Fragment of the NAD^+-Reducing [NiFe]-Hydrogenase from Ralstonia eutropha” (PLoS ONE, 2011).
Read-outs that look alike come from different tables or passages of the source.

Tests used:
[1] = molecular target: T1, HoxFU (diaphorase moiety of the NAD+-reducing soluble [NiFe]-hydrogenase, SH) (Cupriavidus necator, UniProt P22317); experiment: protein film electrochemistry, inhibition of NAD+ reduction current; assay type: biochemical; settings: -412 mV, 0.14 mM NAD+, 50 mM Tris-HCl pH 8.0; enzyme adsorbed on graphite electrode
T1 construct: gene hoxF; HoxFU heterodimer without HoxHY and HoxI; N-terminal Strep-tag II on HoxF kept; plasmid pGE553, homologous overproduction in R. eutropha HF424; Strep-Tactin plus size exclusion; apparent 110 kDa; HoxF 67 kDa, HoxU 27 and 23 kDa (both with original termini, unidentified modification); FMN and Fe-S clusters; with NAD-reducing hydrogenase HoxS subunit gamma

[2] = molecular target: T1, HoxFU (diaphorase moiety of the NAD+-reducing soluble [NiFe]-hydrogenase, SH); experiment: protein film electrochemistry, Dixon plot; assay type: biochemical

T1 sequence (P22317 whole entry): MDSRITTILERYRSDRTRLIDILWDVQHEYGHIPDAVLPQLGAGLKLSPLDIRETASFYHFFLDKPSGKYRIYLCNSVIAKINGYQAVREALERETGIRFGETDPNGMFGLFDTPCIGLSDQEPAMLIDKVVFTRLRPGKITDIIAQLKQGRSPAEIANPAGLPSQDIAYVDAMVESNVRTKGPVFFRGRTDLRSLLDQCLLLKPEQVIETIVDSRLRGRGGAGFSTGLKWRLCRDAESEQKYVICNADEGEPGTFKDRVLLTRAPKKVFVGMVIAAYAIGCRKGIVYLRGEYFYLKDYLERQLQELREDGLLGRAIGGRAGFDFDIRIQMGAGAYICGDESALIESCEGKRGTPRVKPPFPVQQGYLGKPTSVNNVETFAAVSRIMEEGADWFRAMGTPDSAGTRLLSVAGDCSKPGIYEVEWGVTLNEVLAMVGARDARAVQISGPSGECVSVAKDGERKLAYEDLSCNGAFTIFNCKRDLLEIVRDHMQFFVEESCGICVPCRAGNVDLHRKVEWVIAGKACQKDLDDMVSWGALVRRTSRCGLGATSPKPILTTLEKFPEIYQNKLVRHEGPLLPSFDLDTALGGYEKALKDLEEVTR
T1 sequence (P22318 2-234 partner): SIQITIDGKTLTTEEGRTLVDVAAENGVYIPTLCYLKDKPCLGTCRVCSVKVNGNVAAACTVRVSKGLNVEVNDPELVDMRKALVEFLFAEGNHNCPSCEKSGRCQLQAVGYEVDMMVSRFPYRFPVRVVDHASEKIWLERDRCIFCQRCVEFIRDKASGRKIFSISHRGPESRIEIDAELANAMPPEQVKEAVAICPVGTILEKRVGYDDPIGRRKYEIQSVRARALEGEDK

Nc1ncnc2c1ncn2[C@@H]1O[C@H](COP(=O)(O)OP(=O)(O)OC[C@H]2OC(O)[C@H](O)[C@@H]2O)[C@@H](O)[C@H]1O (stereo partly drawn) [ADP-ribose]
protein film electrochemistry, inhibition of NAD+ reduction current [1]: effect of injections of ADP-ribose on NAD^+ reduction by HoxFU, confirming that ADP-ribose is an inhibitor

NC(=O)C1=CN([C@@H]2O[C@H](COP(=O)(O)OP(=O)(O)OC[C@H]3O[C@@H](n4cnc5c(N)ncnc54)[C@H](O)[C@@H]3O)[C@@H](O)[C@H]2O)C=CC1 [NADH]
Ki ([2]; read-out: K I(NADH)): 200 to 300 µM

NC(=O)c1ccc[n+]([C@@H]2O[C@H](COP(=O)(O)OP(=O)(O)OC[C@H]3O[C@@H](n4cnc5c(N)ncnc54)[C@H](O)[C@@H]3O)[C@@H](O)[C@H]2O)c1 [NAD^+]
Ki ([2]; read-out: K I(NAD+)): 100 to 300 µM
